Data reported in patent US20260297136A1, “PEPTIDES WITH LIPOLYTIC, ANTI-LIPOGENIC, ANTIFIBROTIC AND ANTI-INFLAMMATORY ACTIVITY” (FUNDACIÓ HOSPITAL UNIVERSITARI VALL D'HEBRON - INSTITUT DE …, priority 2023, published 2026).

Legend:
[1] = tested on: HepG2 cells; assay: Hepatic lipogenesis gene expression (ACC, FAS, ACLY mRNA by RTPCR) in HepG2 cells, Example 2; type: cell-based, human; settings: 10 μM, 24 h, relative to 18S
Procedure: FIG. 5 Human hepatoblastoma cell line HepG2 was treated with vehicle (DMSO) or 10 μM of GP4, GP7, GP8 or GP9 for 24 h. RNA was extracted and mRNA levels of Acetyl-CoA Carboxylase (ACC), Fatty Acid Synthase (FAS) and ATP-Citrate Lyase (ACLY) relative to 18S were measured by RTPCR.
(§1) Cell culture reagents were from Life Technologies Inc (Invitrogen SA, Barcelona, Spain). HepG2 hepatoblastoma cells (cat. no. HB-8065; ATCC, LGC Standards SLU, Barcelona, Spain) were maintained in Dulbecco's modified Eagle medium (DMEM) supplemented with 10% fetal bovine serum and antibiotics. HepG2 cells were treated with vehicle or 10 μM of GP4, GP7, GP8 and GP9 for 24 h. LX-2 human hepatic stellate cells (SCC064) were maintained in DMEM supplemented with 2% fetal bovine serum and antibiotics. For experiments, LX-2 were cultured for 24 h in DMEM 0.2% FBS and treated for 24 h with vehicle or TGFβ1 (20 ng/ml) in the absence or presence of 8 μM of GP4, GP7, GP8 and GP9 for 24 h. At the end of the experiment's cells were harvested for gene expression analysis.
Total RNA was extracted from HepG2 and LX-2 cells using TRIzol reagent (Invitrogen SA). Reverse transcription was performed at 42° C. for 50 minutes using […] of total RNA, 200 U of Superscript II, and an oligo-dT primer and reagents provided by Invitrogen. An aliquot of the reverse transcription product was amplified in a […] reaction using SYBRGreen (Invitrogen SA) with appropriate oligonucleotide primer pairs corresponding to human ACC, FAS, ACLY, Col1A1 and 18S (shown in table 7). Results were analyzed using the 7000 Sequence Detection System program (Applied Biosystems, Thermo Fisher Scientific, Barcelona, Spain) (Sex Hormone-Binding Globulin Reduction in Metabolic Disorders May Play a Role in NAFLD Development.Saez-Lopez C, Barbosa-Desongles A, Hernandez C, Dyer R A, Innis S M, Simo R, Selva D M. Endocrinology. 2017 Mar. 1; 158(3):545-559. doi: 10.1210/en.2016-1668).

[2] = tested on: human mature adipocytes; assay: Lipolysis in human mature adipocytes (glycerol production), Example 2; type: cell-based; settings: 16 h
Procedure: FIG. 7. Mature human subcutaneous adipocytes were treated with vehicle (DMSO), 3 μM of Isoproterenol or 10 μM of GP4, GP8 or GP9 for 16 h. Glycerol concentration was assessed using a Lipolysis Assay Kit (Tebu-bio). Lipolysis induction was calculated with respect to the control cells treated with DMSO.
(§2) Human preadipocytes and cell culture reagents were from purchased from Tebu-Bio (Tebu-bio, Barcelona, Spain) and differentiation protocol was done following the manufacturer's instructions. Human adipocytes were maintained in a humidified incubator with 5% CO2 at 37° C. (Sex hormone-binding globulin overexpression protects against high-fat diet-induced obesity in transgenic male mice. Saez-Lopez C, Villena J A, Simo R, Selva D M. J Nutr Biochem. 2020 November; 85:108480. doi: 10.1016/j.jnutbio.2020.108480).
Lipolysis assays were performed using a Lipolysis Kit (Tebu-Bio) following the manufacturer's instructions as previously described.

[3] = tested on: HepG2 cells; assay: Hepatic lipogenic key enzymes in HepG2 cells in the presence of 30 mM fructose (2 h), Example 7; type: cell-based, human
Procedure: FIG. 34. Effects of different peptides and SHBG in reducing hepatic lipogenic key enzymes in the presence of 30 mM fructose. Each bar within each group represents mRNA levels of a key hepatic lipogenic enzyme, from left to right: Acetyl-CoA Carboxylase (ACC), ATP Citrate Lyase (ACLY) and Fatty Acid Synthase (FAS), and a key transcription factor regulating several lipogenic enzymes such as PPARγ (PPARγ).
Cell culture reagents were from Life Technologies Inc (Invitrogen SA, Barcelona, Spain). HepG2 hepatoblastoma cells (cat. no. HB-8065; ATCC, LGC Standards SLU, Barcelona, Spain) were maintained in Dulbecco's modified Eagle medium (DMEM) supplemented with 10% fetal bovine serum and antibiotics.
• HepG2 cells were cultured for 5 day in the absence or presence of 30 mM fructose. Cells cultured in 30 mM fructose were daily treated with vehicle, Telmisartan, Semaglutide or EDL6D. • HepG2 cells were cultured for 24 h in the absence or presence of GP6 (40 μg/ml), GP10 (40 μg/ml), GP11 (40 μg/ml), GP12 (40 μg/ml), GP13 (40 μg/ml) or SHBG (20 nM). • HepG2 cells were cultured in the absence or presence of 30 mM fructose and treated for 2 h with vehicle or GP4 (40 μg/ml), GP6 (40 μg/ml), GP7 (40 μg/ml), GP8 (40 μg/ml), GP9 (40 μg/ml), GP10 (40 μg/ml), GP11 (40 μg/ml), GP12 (40 μg/ml), GP13 (40 μg/ml) or SHBG (20 nM).
Total RNA was extracted from HepG2 and LX-2 cells using TRIzol reagent (Invitrogen SA). Reverse transcription was performed at 42° C. for 50 minutes using […] of total RNA, 200 U of Superscript II, and an oligo-dT primer and reagents provided by Invitrogen. An aliquot of the reverse transcription product was amplified in a […] reaction using SYBRGreen (Invitrogen SA) with appropriate oligonucleotide primer pairs corresponding to human SHBG, ACC, FAS, ACLY, PPARG, and 18S and mouse ACC, FAS, ACLY, PPARG, Col1A1 and 18S. Results were analyzed using the 7000 Sequence Detection System program (Applied Biosystems, Thermo Fisher Scientific, Barcelona, Spain) (Shez-Lopez et al Endocrinology 2017).

[4] = tested on: LX-2 cells; assay: Fibrosis in LX-2 cells: Col1A1 mRNA induced by TGFβ1, Example 2; type: cell-based, human; settings: 8 μM, 24 h
Procedure: FIG. 6. Human hepatic stellate cell line LX-2 was treated with vehicle (DMSO) or TGFβ1 (10 ng/ml) in the absence or presence of 8 μM of GP8 or GP9 for 24 h. RNA was extracted and mRNA levels of collagen 1A1 (Col1A1) relative to 18S were measured by RTPCR.
as §1, with “For experiments, LX-2 were cultured for 24 h in DMEM 0.2% FBS and treated for 24 h with vehicle or TGFβ1 (20 ng/ml) in the absence or presence of 8 μM of GP4, GP7, GP8 and GP9 for 24 h. At the end of the experiment's cells were harvested for gene expression analysis.” left out
Total RNA was extracted from HepG2 and LX-2 cells using TRIzol reagent (Invitrogen SA). […] Results were analyzed using the 7000 Sequence Detection System program (Applied Biosystems, Thermo Fisher Scientific, Barcelona, Spain) (Sex Hormone-Binding Globulin Reduction in Metabolic Disorders May Play a Role in NAFLD Development.Saez-Lopez C, Barbosa-Desongles A, Hernandez C, Dyer R A, Innis S M, Simo R, Selva D M. Endocrinology. 2017 Mar. 1; 158(3):545-559. doi: 10.1210/en.2016-1668).

[5] = tested on: human mature adipocytes; assay: Lipolysis in human mature adipocytes (glycerol production), Example 3; type: cell-based; settings: Homo sapiens, Adipocyte; 1 μM, 16 h, with respect to controls; read-out: increase of glycerol concentration (lipolysis positive control)
Procedure: FIG. 4 Mature human subcutaneous adipocytes were treated with vehicle (DMSO), 1 μM of Isoproterenol, Semaglutide (10 nM) or GP6 (25, 50 or 100 μg/ml) for 16 h. Glycerol concentration was assessed using a Lipolysis Assay Kit (Tebu-bio).
as §2
Lipolysis assays were performed using a Lipolysis Kit (Tebu-Bio) following the manufacturer's instructions as previously described by Saez-Lopez and collaborators (Sex hormone-binding globulin overexpression protects against high-fat diet-induced obesity in transgenic male mice. Saez-Lopez C, Villena J A, Simo R, Selva D M. J Nutr Biochem. 2020 November; 85:108480. doi: 10.1016/j.jnutbio.2020.108480.)

[6] = EP 3003351 A1; cited from earlier work

Q: With `CC[C@@H](C)[C@@H](NC(=O)[C@H](NC(=O)CNC(=O)[C@@H](CCC(=O)O)NC(=O)[C@H]1CCCN1C(=O)[C@@H](CC(=O)O)NC(=O)[C@@H](Cc1c[nH]c2ccccc12)NC(=O)[C@H](N)[C@H](C)O)C(C)C)C(=O)N[C@H](Cc1ccccc1)C(=O)N[C@H](Cc1ccc(O)cc1)C(=O)NCC(=O)N[C@H](CC(=O)O)C(=O)N[C@@H](C(=O)N[C@H](CC(N)=O)C(=O)N1CCC[C@@H]1C(=O)N[C@H](CCCCN)C(=O)N[C@H](CC(=O)O)C(=O)N[C@H](CC(=O)O)C(=O)N[C@H](Cc1c[nH]c2ccccc12)C(=O)N[C@H](Cc1ccccc1)C(=O)N[C@H](CCSC)C(=O)N[C@H](CC(C)C)C(=O)NCC(=O)N[C@H](CC(C)C)C(=O)N[C@H](CCCNC(=N)N)C(=O)N[C@H](CC(=O)O)C(=O)NCC(=O)N[C@H](CCCNC(=N)N)C(=O)N1CCC[C@@H]1C(=O)N[C@H](CCC(=O)O)C(=O)O)[C@H](C)O` [GP9] as the molecule, how does the “ATP-Citrate Lyase (ACLY) mRNA levels” value [1] read?
A: did not alter

Q: And the “Acetyl-CoA Carboxylase (ACC) mRNA levels” value [1]?
A: did not alter

Q: And the “Fatty Acid Synthase (FAS) mRNA levels” value [1]?
A: reduced

Q: What about the “increase of glycerol production (lipolysis)” value ([2]; 10 μM, with respect to control cells) of the same molecule?
A: 170%

Q: And the “fructose-induced expression of ACC” value ([3]; 40 μg/ml)?
A: able to reduce the expression of ACC and ACLY more effectively than SHBG

Q: What about the “fructose-induced expression of ACLY” value ([3]; 40 μg/ml) of the same molecule?
A: able to reduce the expression of ACC and ACLY more effectively than SHBG

Q: And the “fructose-induced expression of FAS” value ([3]; 40 μg/ml)?
A: had no effect on FAS

Q: And the “fructose-induced expression of PPARγ” value ([3]; 40 μg/ml)?
A: increased PPARγ expression

Q: And the “reduction of Col1A1 mRNA levels induced by TGFβ1” value [4]?
A: 21%

Q: Which activation at 1 µM [5] does the source give for `CC(C)NCC(O)c1ccc(O)c(O)c1` (stereo not shown) [isoproterenol, 4-[1-hydroxy-2-(propan-2-ylamino)ethyl]benzene-1,2-diol, reference compound] here?
A: 400%

Q: What about the activation at 3 µM ([2]; Homo sapiens, Adipocyte, 3 μM, with respect to control, read-out: increase of glycerol concentration (lipolysis positive control)) of the same molecule?
A: 370%

B1: SHBG: sex hormone-binding globulin (SHBG) protein (protein, UniProt P04278 30-402, looked up)
Sex hormone-binding globulin: LRPVLPTQSAHDPPAVHLSNGPGQEPIAVMTFDLTKITKTSSSFEVRTWDPEGVIFYGDTNPKDDWFMLGLRDGRPEIQLHNHWAQLTVGAGPRLDDGRWHQVEVKMEGDSVLLEVDGEEVLRLRQVSGPLTSKRHPIMRIALGGLLFPASNLRLPLVPALDGCLRRDSWLDKQAEISASAPTSLRSCDVESNPGIFLPPGTQAEFNLRDIPQPHAEPWAFSLDLGLKQAAGSGHLLALGTPENPSWLSLHLQDQKVVLSSGSGPGLDLPLVLGLPLQLKLSMSRVVLSQGSKMKALALPPLGLAPLLNLWAKPQGRLFLGALPGEDSSTSFCLNGLWAQGQRLDVDQALNRSHEIWTHSCPQSPGNGTDASH
Q: Which “lipolytic and anti-lipogenic activity” value [6] does the source give for B1 here?
A: has lipolytic and anti-lipogenic activity

Q: What about the “fructose-induced expression of ACC” value ([3]; SHBG 20 nM) of the same molecule?
A: able to reduce

Q: What about the “fructose-induced expression of ACLY” value ([3]; SHBG 20 nM) of the same molecule?
A: able to reduce

Q: And the “fructose-induced expression of FAS” value ([3]; SHBG 20 nM)?
A: able to reduce

Q: And the “fructose-induced expression of PPARγ” value ([3]; SHBG 20 nM)?
A: able to reduce
